Experiments:
[1] = system: OVCAR5-cisR cells; assay: Isotope labeling and SRS imaging; format: cell-based, human; details: BMS 10 μM for 24 hours, 100 μM PA-d31 for 6 hours
Procedure: (§1) For labeling with glucose-d7, media was replaced with glucose-free DMEM medium (Thermo Fisher Scientific, #11966025)+10% FBS+P/S supplemented with 25 mM glucose-d7 after seeding the cells in 35 mm glass-bottom dishes overnight. For labeling with FA or analogs, including PA-d31, OA-d34, and ODYA, FA or analogs were added to the culture media at final concentration of 100 μM and cells were treated for 6 h. For quantitative SRS imaging, cells on glass-bottom dishes were fixed with 10% neutral buffered formalin for 30 min and washed with PBS for 3 times. Hyperspectral SRS imaging was performed to the cells at Raman spectral region from 2100 to 2300 cm^−1.
(§2) To identify the source of increased lipid content in cisplatin-resistant ovarian cancer cells, the contribution of de novo lipogenesis and of fatty acid uptake were examined, respectively. Using a stable isotope probing method, the level of lipogenesis was examined by feeding the cells with deuterium labeled glucose-d7. […] Quantitative analysis confirmed significant reduction of both signal intensity and relative area fraction in PEO4 cells when compared to PEO1 cells (FIG. 2B), indicating a decrease in glucose derived anabolism and de novo lipogenesis in cisplatin-resistant cells. […]

[2] = system: SKOV3-cisR cells; assay: Isotope labeling and SRS imaging; format: cell-based, human; details: BMS 5 μM, 10 μM or 20 μM for 24 hours, 100 μM PA-d31 for 6 hours
Procedure: as §1, §2

[3] = system: OVCAR5-cisR cells; assay: Cell viability assay (dose-response); format: cell-based, human
Procedure: (§3) Cell viability was measured by MTS assay (Abcam, #ab197010) or by CellTiter-Glo™ assay (Promega, #G7570). Cells were seeded at 96-well plates at densities of 2000˜5000 cells per well overnight. Treatment was added to the cells at indicated concentrations for 72 h. Cell viability was measured by incubating with MTS reagent for 4 h and reading absorbance at 490 nm or incubating with CellTier-Glo™ reagent for 10 min and reading luminescence by a plate reader. Six replicates were used for each group.
(§4) In addition, isogenic PEO1/PEO4 cell lines derived from the same patient were studied, at the time of a platinum sensitive (PEO1) and platinum resistant-recurrence (PEO4).
(§5) Having shown decreased glucose-derived anabolism and increased fatty acid uptake in cisplatin-resistant ovarian cancer cells, whether this metabolic feature can be used for differentiation of cisplatin-resistant from cisplatin-sensitive cancer cells was explored. […] In Table 2 below, quantitation of glucose-d7 (G-d7), PA-d31, and OA-d34 are shown as area fraction of C-D signal out of total cellular area, in mean values.

[4] = system: PEO4 cells; assay: Cell viability assay (dose-response); format: cell-based, human
Procedure: as §3, §4, §5

[5] = system: SKOV3 cells; assay: Cell viability assay (dose-response); format: cell-based, human; details: SKOV3 cells (sensitive)
Procedure: as §3, §4, §5

[6] = system: SKOV3-cisR cells; assay: Cell viability assay (dose-response); format: cell-based, human; details: SKOV3-cisR cells
Procedure: as §3, §4, §5

[7] = system: PEO1 cells; assay: Cell viability assay (dose-response); format: cell-based, human; details: PEO1 cells (sensitive)
Procedure: as §3, §4, §5

[8] = system: OVCAR5 cells; assay: Cell viability assay (dose-response); format: cell-based, human; details: OVCAR5 cells (sensitive)
Procedure: as §3, §4, §5

[9] = system: SKOV3-cisR cells; assay: Large-area hyperspectral SRS imaging of lipids, single cell analysis; format: cell-based, human; details: 10 μM C-75
Procedure: Hyperspectral SRS imaging was performed on a lab-built system following previously published method [8]. The laser source was a femtosecond laser (InSight™ DeepSee™, Spectra-Physics™, Santa Clara, CA, USA) operating at 80 MHz with two synchronized output beams, a tunable pump beam ranging from 680 nm to 1300 nm, and a Stokes beam fixed at 1040 nm. For imaging at the C-H vibration region (2800˜3050 cm^−1), pump beam was tuned to 798 nm. The Stokes beam was modulated at 2.3 MHz by an acousto-optic modulator (1205-C, Isomet®). After combination, both beams were chirped by two 12.7 cm long SF57 glass rods and then sent to a laser-scanning microscope. The power of pump and Stokes beam before microscope was controlled to be 20 mW and 200 mW, respectively. […]
Lipid analysis in single cells were performed through the software CellProfiler™ [68]. […] Morphological information of each cell and lipid analysis, including LD number and intensity in single cells were measured and reported in the output results. […] For each sample, a few hundreds to a thousand of cells were analyzed.
An SRS spectrum was extracted at each pixel from the image stack. […] Finally, quantitative characterization of lipids in terms of integrated intensity, mean intensity, area, and lipid droplet size in each individual cell was performed.

[10] = system: platinum resistant PDX model; assay: Platinum resistant patient-derived xenograft (PDX) model; format: in vivo; details: day 14 to 37
Procedure: The platinum resistant PDX model was developed as previously described. After passage through a donor animal, fresh tumor (equal size) was implanted subcutaneously (SC) in 20 female 7-8-week-old NSG mice (Jackson Labs, Cat #: JAX:00555). Tumor sizes were measured using calipers twice per week and tumor volumes were calculated according to the formula length×width^2/2. When the tumor volume reached 100 mm^3, the animals were randomized into four groups: vehicle, carboplatin alone (10 mg/kg weekly intraperitoneal (i.p.) injection), etomoxir alone (40 mg/kg daily i.p. injection), and combination of carboplatin (10 mg/kg weekly i.p. injection) and etomoxir (40 mg/kg daily i.p. injection). Body weights and habitus were monitored twice per week and mice were sacrificed when the largest tumor exceeded 1500 mm^3 or if human endpoints were reached earlier.
A patient-derived xenograft (PDX) model rendered platinum resistant through repeated exposure to carboplatin in vivo as described previously was used to test whether interruption of fatty acid oxidation could sensitize ovarian tumors to platinum in vivo.

[11] = system: OVCAR5 xenografts; assay: OVCAR5 xenografts in mice treated with carboplatin; format: in vivo; details: 25 mg/kg carboplatin weekly i.p. for three cycles versus saline
Procedure: Xenografts were obtained through intraperitoneally implantation of 2 million OVCAR5 cells in female (6-8 weeks old) athymic nude mice (Foxn1^nu, Envigo). Two weeks after inoculation, tumor harboring mice were treated with PBS (sensitive group, n=3) or 25 mg/kg carboplatin (resistant group, n=3) via weekly i.p. injection for three cycles. Tumors were collected and weighted one week after the last cycle and frozen. For SRS imaging, tumors were sectioned at […] thickness slices by cryostat. To isolate tumor cells from tissue, PBS and carboplatin treated xenografts were mechanically and enzymatically dissociated in Dulbecco's modified Eagle's medium/F12 (Thermo Fisher Scientific) containing collagenase (300 IU/ml, Sigma-Aldrich) and hyaluronidase (300 IU/ml, Sigma-Aldrich) for 2-4 hours at 37° C. […] To determine whether lipid accumulation also occurs in vivo in platinum-treated tumors, SRS imaging of lipids was performed in OVCAR5 xenografts collected from mice treated weekly with saline or carboplatin for three weeks. Tumor growth was suppressed by carboplatin treatment (FIG. 1N). […] (FIG. 1O). The results shown in FIGS. 1P-1Q indicate heterogenous lipid accumulation and higher lipid amount in the carboplatin-treated tumors compared with the platinum-sensitive tumors. Collectively, higher level of lipid content was a metabolic feature of cisplatin-resistant ovarian cancer cells.

[12] = system: OVCAR5-cisR cells; assay: Fatty acid oxidation assay (extracellular oxygen consumption kit); format: cell-based, human; details: 40 μM etomoxir over 3 hours
Procedure: (§6) Fatty acid oxidation (FAO) was measured using a commercial kit (Abcam, #ab217602) following the provided protocol. Briefly, cells were seeded in 96-well plate with 150 k cells/well. After incubation overnight, medium was replaced. 10 μL of Extracellular O2 consumption reagent, and 2 drops of high-sensitivity mineral oil (pre-heated at 37° C.) were added to each well. Fluorescence was measured in plate reader at 2 min intervals for 180 min at excitation/emission=380/650 nm. Etomoxir was added at final concentration of 40 μM to block FAO. Oxygen consumption rate (OCR) is presented as AFluorescence intensity/Min/cell and FAO rate is calculated as OCRFAO=OCRtotal−OCREtomoxir. At least three replicates were included for each measurement.

[13] = system: OVCAR5 cells; assay: as above; format: cell-based, human; details: 40 μM etomoxir over 3 hours
Procedure: as §6

[14] = system: OVCAR5-cisR cells; assay: OCR and ECAR by Seahorse analysis; format: cell-based, human; details: etomoxir treatment
Procedure: (§7) Cell lines were seeded in a Seahorse® XF96 Cell Culture Microplate (Agilent) at density of 6×10^4 (OVCAR5 pair) or 4×10^4 (PEO pair) per well. After incubation at 37° C. overnight for cell attachment, OCR, and extracellular acidification rate (ECAR) were measured through Seahorse® XFe96 Analyzer (Agilent). Measurement time was 30 seconds following 3 minutes mixture and 30 seconds waiting time. First three cycles were used for basal respiration measurement. […] Basal respiration, ATP production and maximal respiration reduction were calculated following the manufacturer's instructions.

[15] = system: OVCAR5 cells; assay: OCR and ECAR by Seahorse analysis; format: cell-based, human; details: etomoxir treatment
Procedure: as §7

[16] = system: COV362-cisR cells; assay: Cell viability assay (dose-response); format: cell-based, human
Procedure: as §3, §4, §5

[17] = system: OVCAR5-cisR cells; assay: ATP/ADP assay; format: cell-based, human; details: 3.3 μM cisplatin with 100 μM palmitic acid for 6 hours
Procedure: NADP/NADPH and ADP/ATP were measured by using commercial kits (Abcam, #ab65349 and #ab65313). For NADPH measurement, cells (˜1×10^6 cells) were pelleted and extracted using NADPH/NADP extraction buffer. Total NADP/NADPH was directly measured using the assay kit and NADPH alone was measured after decomposing NADP by heating at 60° C. for 30 min. Absorption at 450 nm was measured by plate reader (Molecular Devices, SpectraMax i3x). For ATP measurement, cells were seeded in 96-well plates. ATP was measured directly and total ATP+ADP was measured by converting ADP to ATP. The luminescent signal was measured by plate reader. At least three replicates were included for each measurement.

Compound: CCc1c(-c2ccccc2)c(-c2ccccc2)nn1-c1ccccc1-c1cccc(OCC(=O)O)c1 [BMS309403]
- PA-d31 uptake (C-D SRS signal intensity) [1]: significantly reduced
- fatty acid uptake (C-D SRS signal intensity) [2]: Suppression of fatty acid uptake
- dose-response to cisplatin with supplemental BMS treatment ([3]; OVCAR5-cisR cells): reduced resistance to cisplatin
- dose-response to cisplatin with supplemental BMS treatment ([4]; PEO4 cells): reduced resistance to cisplatin
- dose-response to cisplatin with supplemental BMS treatment [5]: less obvious
- dose-response to cisplatin with supplemental BMS treatment [6]: reduced resistance to cisplatin
- dose-response to cisplatin with supplemental BMS treatment [7]: less obvious
- dose-response to cisplatin with supplemental BMS treatment [8]: less obvious

Compound: C=C1C(=O)OC(CCCCCCCC)C1C(=O)O (centres unmarked) [C-75]
- increased lipid content in SKOV3-cisR compared with SKOV3 [9]: did not affect the increased lipid content

Compound: N.N.O=C([O-])C1(C(=O)[O-])CCC1.[Pt+2] [carboplatin]
- tumor growth (total tumor volume) ([10]; carboplatin alone, 10 mg/kg weekly i.p.): slight reduction of tumor growth
- Tumor growth (weights of xenografts) [11]: suppressed

Compound: CCOC(=O)[C@@]1(CCCCCCOc2ccc(Cl)cc2)CO1 [etomoxir]
- oxygen consumption [12]: significantly reduced
- oxygen consumption [13]: did not induce an obvious change
- OCR (Seahorse FAO assay) [14]: obvious reduction of OCR
- OCR (Seahorse FAO assay) [15]: less sensitive
- tumor growth (total tumor volume) ([10]; etomoxir alone, 40 mg/kg daily i.p.): slight reduction of tumor growth
- dose-response to cisplatin curves with etomoxir treatment ([3]; OVCAR5-cisR cells, etomoxir 40 μM): significantly left shifted
- dose-response to etomoxir, compared to parental cell line ([3]; OVCAR5-cisR versus OVCAR5): Higher sensitivity
- dose-response to cisplatin curves with etomoxir treatment ([4]; PEO4 cells, etomoxir 40 μM): significantly left shifted
- dose-response to etomoxir, compared to parental cell line ([4]; PEO4 versus PEO1): Higher sensitivity
- dose-response to cisplatin curves with etomoxir treatment ([16]; COV362-cisR cells, etomoxir 40 μM): significantly left shifted
- dose-response to etomoxir, compared to parental cell line ([16]; COV362-cisR versus COV362): Higher sensitivity

Compound: CCCCCCCCCCCCCCCC(=O)O [palmitic acid]
- ATP level (ATP/ADP ratio) on supplementation [17]: significantly increased
